Laboratory results taken from ChEMBL document CHEMBL4266050, “Metabolomics-Driven Discovery of Meroterpenoids from a Mussel-Derived Penicillium ubiquetum” (J Nat Prod, 2018).
The source made the active and inactive calls. No cut-off for these calls is given here.

Legend:
KB [1] = assay: Cytotoxicity against human KB cells at 50 uM by MTT assay; format: functional, cell-based
MCF7 [2] = assay: Cytotoxicity against human MCF7 cells at 50 uM by MTT assay; format: functional, cell-based
[3] = Stability of the compound; format: physicochemical
KB [4] = assay: Cytotoxicity against human KB cells by MTT assay; format: functional, cell-based
MCF7 [5] = assay: Cytotoxicity against human MCF7 cells by MTT assay; format: functional, cell-based

SMILES	Activity (KB [1])	Activity (MCF7 [2])	Stability [3]	IC50 (KB [4]) [µM]	IC50 (MCF7 [5]) [µM]
COC(=O)O[C@@H]1C=C2C(=CC(=O)OC2(C)C)[C@H](C)[C@@H]2C[C@@]3(C)C(=O)O[C@H]4O[C@@H](C)C(=O)[C@H]([C@H]43)[C@@]12C	inactive	inactive			
COC(=O)[C@@]12[C@@H]3[C@H]4OC(=O)[C@]3(C)C[C@@H]3[C@]1(C)[C@@H](C=C1C(=CC(=O)OC1(C)C)[C@@]3(C)O)O[C@]2(O)[C@H](C)O4	inactive	inactive			
COC(=O)O[C@@H]1C=C2C(=CC(=O)OC2(C)C)[C@H](C)[C@@H]2C[C@@]3(C)C(=O)O[C@H]4O[C@@H](C)C(=O)[C@@H]([C@@]12C)[C@]43O	inactive	inactive			
COC(=O)[C@@]12[C@@]3(C)[C@H]4C=C5C(=CC(=O)OC5(C)C)[C@H](C)[C@@H]3C[C@@]3(C)C(=O)O[C@@H](O[C@@H](C)[C@@]1(O)O4)[C@@]23O	inactive	inactive			
COC(=O)[C@]12C(=O)[C@H](C)O[C@@H]3OC(=O)[C@](C)(C[C@H]4[C@@H](C)C5=CC(=O)OC(C)(C)C5=C[C@@H](O)[C@@]41C)[C@@H]32			Unstable		
CC(=O)O[C@@]12CO[C@@H]1C[C@H](O)[C@@]1(C)C(=O)[C@H](O)C3=C(C)[C@@H](OC(=O)[C@H](O)[C@@H](NC(=O)OC(C)(C)C)c4ccccc4)C[C@@](O)([C@@H](OC(=O)c4ccccc4)[C@H]21)C3(C)C [DOCETAXEL ANHYDROUS]				0.038	0.0103
COC(=O)[C@]12[C@@H]3[C@H]4OC(=O)[C@]3(C)CC3=C(C)C5=C(C[C@@H](O[C@]1(O)[C@H](C)O4)[C@@]32C)C(C)(C)OC(=O)C5	inactive	inactive			
COC(=O)[C@]12C(=O)[C@H](C)O[C@@H]3OC(=O)[C@](C)(C[C@H]4C(C)=C5CC(=O)OC(C)(C)C5=CC[C@@]41C)[C@@H]32	inactive	inactive			
COC(=O)[C@]12[C@@H]3[C@H]4OC(=O)[C@]3(C)C[C@H]3[C@@H](C)C5=CC(=O)OC(C)(C)C5=C[C@@H](O[C@]1(O)[C@H](C)O4)[C@@]32C	inactive	inactive			
COC(=O)[C@@]1(C)O[C@H]2OC(=O)[C@@H]3[C@H]2[C@@](C)(C[C@H]2C(C)=C4CC(=O)OC(C)(C)C4=CC[C@]32C)C1=O	inactive	inactive			
